The target of experiment [1] is T1, hCB2 receptor (Homo sapiens, UniProt P34972). Briefly: Single-dose radioligand displacement assay ([3H]WIN55212-2). The format is binding. Further details: host or cells: CHO cells. The conditions noted are these: membranes from recombinant CHO cells expressing human CB2, duplicate; for inhibition at 10 µM: read-out: Inhibition (%) of [3H]WIN55212-2 specific binding, 10 µM single dose; for Inhibition (%) of [3H]WIN55212-2 specific binding: 10 µM single dose. As to the method: To assess ligand binding to CB2 receptors, radioligand displacement assay at a single dose (10 μM) was performed in membranes obtained from recombinant CHO cells expressing human CB2 receptors (Eurofins Cerep SA, France). Out of 26 compounds, more than 50% of the molecules presented >50% displacement, while 20% of the compounds (5, 6, 16, 19, 22) presented >80% displacement of radioligand binding at a 10 μM dose. Compounds 5, 6, 16, 19, and 22 were further tested for CB2 receptor activation (agonist activity, see below) and CB2/CB1 selectivity.
T1 sequence (P34972 whole entry): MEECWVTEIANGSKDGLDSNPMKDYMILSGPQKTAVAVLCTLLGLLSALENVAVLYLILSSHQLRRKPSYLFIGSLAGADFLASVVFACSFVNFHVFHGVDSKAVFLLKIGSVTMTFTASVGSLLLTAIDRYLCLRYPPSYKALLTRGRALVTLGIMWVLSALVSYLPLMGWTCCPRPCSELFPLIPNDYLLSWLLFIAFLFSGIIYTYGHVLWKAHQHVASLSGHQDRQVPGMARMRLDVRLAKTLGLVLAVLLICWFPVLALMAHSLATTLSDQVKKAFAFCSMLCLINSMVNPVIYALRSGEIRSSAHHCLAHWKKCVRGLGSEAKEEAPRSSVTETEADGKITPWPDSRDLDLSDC
All membrane preparations for these studies were generated at Cerep Inc. according to standard protocols. Duplicate determinations were performed for each test compound. Compounds were dissolved in DMSO to generate a stock solution. Radioligand binding methods were adapted from Munro et al..
On the technique in general: In a radioligand displacement assay an active substance lowers the binding of a labelled ligand.

Another experiment concerns the target T2, human recombinant CB1R (Homo sapiens, UniProt P21554).
T2 construct: expressed in transfected cells; host or cells: HEK cells
Nature of the experiment: CB1 receptor binding assay ([3H]-CP-55,940 displacement, HEK cell membranes). How it is done: (§1) To assess the compound selectivity between CB1 and CB2 receptors, binding constants were determined through a radioligand displacement assay by testing concentration–response curves for compounds 5, 6, 16, 19, and 22. As shown in Figure 4 and summarized in Table 4, three of the tested compounds (5, 19, and 22) presented moderate binding affinity in a low micromolar range to both CB1 and CB2 receptors.
(§2) CB1 and CB2 receptor binding assays were performed exactly as previously described. […] Displacement curves were performed by incubating [^3H]-CP-55 940 (90 min, 30 °C) with increasing concentrations of compounds (10 nM−10 μM). Ki values were calculated by applying the Cheng−Prusoff equation to the IC50 values (obtained by GraphPad, Prism Software 9.5) for the displacement of the bound radioligand by compounds.

Experiment [2] has as its target T1, hCB2 receptor. Briefly: cAMP accumulation assay (forskolin-stimulated, CHO cells expressing hCB2). The format is cell-based. The conditions noted are these: for agonist activity at CB2 (cAMP accumulation): recombinant cells expressing CB2 receptors. As to the method:
Compounds were further characterized through in vitro functional assays by measuring the variation in forskolin-induced cAMP accumulation (Eurofins Cerep services). The tested compounds diminished the accumulation of cyclic AMP, indicating activity as agonists (Figure 3).
In vitro pharmacology assay for human CB2 agonist effect in CHO cells was performed by Eurofins Cerep (Celle-Lévescault, France). Five compounds were tested at several concentrations for EC50 determination. […] CHO cells stably expressing hCB2 receptor were used to determine agonist effect of compounds, based on the measurement of cAMP level. Assay protocol is adapted from Felder et al..
In general terms: Changes in cAMP serve as a functional read-out for many G protein-coupled receptors.

The target of experiment [3] is T1, hCB2 receptor. Nature of the experiment: CB2 receptor binding assay ([3H]-CP-55,940 displacement, HEK cell membranes). The conditions noted are these: for Ki (CB1)/Ki (CB2): selectivity ratio CB2 over CB1. More on the design: expressed in transfected cells; host or cells: HEK cells. How it is done: as §1, §2
[4] abbreviates: [3H]-CP-55,940 displacement, means ± SD of 3 independent experiments in duplicate, read-out: Ki CB1.
Where [5] appears, read: [3H]-CP-55,940 displacement, means ± SD of 3 independent experiments in duplicate, read-out: Ki CB2.

The record followed here is paper PMC10341893, “Motifs in Natural Products as Useful Scaffolds to Obtain Novel Benzo[d]imidazole-Based Cannabinoid Type 2 (CB2) Receptor Agonists” (International Journal of Molecular Sciences, 2023).

Each structure is given as a SMILES string. Where two headings read alike, the source gives them in different places. Bounds are passed on as bounds.

A word on the inhibition: it is the relative decrease from the control value, in per cent. Broadly, the Ki is the equilibrium dissociation constant of an inhibitor or competing ligand from its target. A word on the EC50: it is the concentration that produces a half-maximal response. A low value points to an effect from little substance.

T2 sequence (P21554 whole entry): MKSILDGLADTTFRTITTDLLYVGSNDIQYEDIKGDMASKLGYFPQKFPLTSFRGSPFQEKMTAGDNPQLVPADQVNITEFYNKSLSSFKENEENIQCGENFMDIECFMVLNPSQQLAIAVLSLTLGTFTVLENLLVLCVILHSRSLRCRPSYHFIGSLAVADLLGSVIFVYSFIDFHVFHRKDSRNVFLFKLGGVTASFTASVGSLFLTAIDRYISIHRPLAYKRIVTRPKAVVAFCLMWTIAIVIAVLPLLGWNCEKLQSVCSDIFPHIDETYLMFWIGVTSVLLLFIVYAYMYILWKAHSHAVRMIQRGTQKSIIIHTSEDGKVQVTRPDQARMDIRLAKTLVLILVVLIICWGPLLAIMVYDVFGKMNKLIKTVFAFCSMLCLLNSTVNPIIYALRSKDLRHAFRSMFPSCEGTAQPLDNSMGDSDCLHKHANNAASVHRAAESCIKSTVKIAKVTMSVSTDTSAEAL

As to `CCCCCCC(C)(C)c1cc(OC)cc(Oc2nc3ccccc3n2Cc2ccccc2)c1` [Compound 25, 1-benzyl-2-(3-methoxy-5-(2-methyloctan-2-yl)phenoxy)-1H-benzo[d]imidazole], the inhibition at 10 µM on hCB2 receptor [1] worked out at 33%.

Turning to `CCn1c(SC2CC(C)CCC2C(C)C)nc2ccccc21` (stereo not shown) [Compound 3, 1-ethyl-2-((2-isopropyl-5-methylcyclohexyl)thio)-1H-benzo[d]imidazole], the inhibition at 10 µM at hCB2 receptor [1] was found to be 69%.

Turning to `CC1CCC(C(C)C)C(Oc2nc3ccccc3n2Cc2ccccc2)C1` (stereo not shown) [Compound 5, 1-benzyl-2-((2-isopropyl-5-methylcyclohexyl)oxy)-1H-benzo[d]imidazole], on human recombinant CB1R, the Ki was found to be 0.92 ± 1.15 µM. In addition, on hCB2 receptor [1], the “Inhibition (%) of [3H]WIN55212-2 specific binding” value (“Inhibition (%)” for short) is 90% and the inhibition at 10 µM was above 80%. Further, at hCB2 receptor [2], the EC50 worked out at 0.014 µM and the “agonist activity at CB2 (cAMP accumulation)” value (“agonist activity at CB2” for short) is reported as “agonist activity was confirmed”. Besides, on hCB2 receptor [3], the affinity, expressed as Ki, was 0.4 ± 0.08 µM and the “Ki (CB1)/Ki (CB2)” value was found to be 2.3.

`c1ccc(Cn2c(OC34CC5CC(CC(C5)C3)C4)nc3ccccc32)cc1` [Compound 16, 2-(adamantan-1-yloxy)-1-benzyl-1H-benzo[d]imidazole]: the Ki at human recombinant CB1R was above 10 µM. On hCB2 receptor [1], the “Inhibition (%)” value is 86% and the inhibition at 10 µM was above 80%. On hCB2 receptor [2], the EC50 turned out to be 0.02 µM and the “agonist activity at CB2” value was “agonist activity was confirmed”. This compound gave a Ki on hCB2 receptor [3] of 0.63 ± 0.19 µM.

In the case of `CCCCCCC(C)(C)c1cc(OC)cc(Oc2nc3ccccc3n2CC)c1` [Compound 26, 1-ethyl-2-(3-methoxy-5-(2-methyloctan-2-yl)phenoxy)-1H-benzo[d]imidazole], on hCB2 receptor [1], the inhibition at 10 µM is 49%.

Turning to `c1ccc2c(Cn3c(SC45CC6CC(CC(C6)C4)C5)nc4ccccc43)cccc2c1` [Compound 13, 2-(adamantan-1-ylthio)-1-(naphthalen-1-ylmethyl)-1H-benzo[d]imidazole], at hCB2 receptor [1], the inhibition at 10 µM turned out to be 30%.

For `CCn1c(OC23CC4CC(CC(C4)C2)C3)nc2ccccc21` [Compound 17, 2-(adamantan-1-yloxy)-1-ethyl-1H-benzo[d]imidazole], at hCB2 receptor [1], the “Inhibition (%)” value stood at 61%.

Take `COc1ccc(CSc2nc3ccccc3n2Cc2ccccc2)cc1` [Compound 19, 1-benzyl-2-((4-methoxybenzyl)thio)-1H-benzo[d]imidazole]: the Ki on human recombinant CB1R (setting [4]) came to 1.23 ± 0.88 µM. Also, on hCB2 receptor [1], the “Inhibition (%)” value stood at 88% and the inhibition at 10 µM is above 80%. Also, the “agonist activity at CB2” value on hCB2 receptor [2] is reported as “agonist activity was confirmed”. Moreover, the Ki at hCB2 receptor [3] (setting [5]) was 0.93 ± 0.29 µM. Also, at hCB2 receptor [3], the “Ki (CB1)/Ki (CB2)” value was found to be 1.3.

As to `CC(C)=CCC/C(C)=C/CSc1nc2ccccc2n1Cc1ccccc1` [Compound 8, (E)-1-benzyl-2-((3,7-dimethylocta-2,6-dien-1-yl)thio)-1H-benzo[d]imidazole], the “Inhibition (%)” value at hCB2 receptor [1] was determined as 71%.

Consider `CCCCCCC(C)(C)c1cc(OC)cc(Oc2nc3ccccc3n2Cc2cccc3ccccc23)c1` [Compound 24, 2-(3-methoxy-5-(2-methyloctan-2-yl)phenoxy)-1-(naphthalen-1-ylmethyl)-1H-benzo[d]imidazole], for which, at hCB2 receptor [1], the inhibition at 10 µM was 32%.

For the compound `CC1CCC(C(C)C)C(Sc2nc3ccccc3n2Cc2ccccc2)C1` (stereo not shown) [Compound 2, 1-benzyl-2-((2-isopropyl-5-methylcyclohexyl)thio)-1H-benzo[d]imidazole], the inhibition at 10 µM on hCB2 receptor [1] is 72%.

Regarding `CCn1c(Oc2cccc(OC)c2)nc2ccccc21` [Compound 23, 1-ethyl-2-(3-methoxyphenoxy)-1H-benzo[d]imidazole], the inhibition at 10 µM on hCB2 receptor [1] worked out at 54%.

For `CC(C)=CCC/C(C)=C/COc1nc2ccccc2n1Cc1cccc2ccccc12` [Compound 10, (E)-2-((3,7-dimethylocta-2,6-dien-1-yl)oxy)-1-(naphthalen-1-ylmethyl)-1H-benzo[d]imidazole], the “Inhibition (%)” value on hCB2 receptor [1] is 40%.

`CCn1c(SC/C=C(\C)CCC=C(C)C)nc2ccccc21` [Compound 9, (E)-2-((3,7-dimethylocta-2,6-dien-1-yl)thio)-1-ethyl-1H-benzo[d]imidazole]: the inhibition at 10 µM at hCB2 receptor [1] came to 54%.

`CC(C)=CCC/C(C)=C/CSc1nc2ccccc2n1Cc1cccc2ccccc12` [Compound 7, (E)-2-((3,7-dimethylocta-2,6-dien-1-yl)thio)-1-(naphthalen-1-ylmethyl)-1H-benzo[d]imidazole]: the inhibition at 10 µM on hCB2 receptor [1] turned out to be 42%.

Consider `CC1CCC(C(C)C)C(Sc2nc3ccccc3n2Cc2cccc3ccccc23)C1` (stereo not shown) [Compound 1, 2-((2-isopropyl-5-methylcyclohexyl)thio)-1-(naphthalen-1-ylmethyl)-1H-benzo[d]imidazole], for which the inhibition at 10 µM on hCB2 receptor [1] is 2%.

Consider `CC(C)=CCC/C(C)=C/COc1nc2ccccc2n1Cc1ccccc1` [Compound 11, (E)-1-benzyl-2-((3,7-dimethylocta-2,6-dien-1-yl)oxy)-1H-benzo[d]imidazole], for which the inhibition at 10 µM on hCB2 receptor [1] was 35%.

For the compound `CCn1c(SCc2ccc(OC)cc2)nc2ccccc21` [Compound 20, 1-ethyl-2-((4-methoxybenzyl)thio)-1H-benzo[d]imidazole], the inhibition at 10 µM at hCB2 receptor [1] was determined as 63%.

In the case of `COc1cccc(Oc2nc3ccccc3n2Cc2cccc3ccccc23)c1` [Compound 21, 2-(3-methoxyphenoxy)-1-(naphthalen-1-ylmethyl)-1H-benzo[d]imidazole], on hCB2 receptor [1], the “Inhibition (%)” value was 62%.

As to `c1ccc(Cn2c(SC34CC5CC(CC(C5)C3)C4)nc3ccccc32)cc1` [Compound 14, 2-(adamantan-1-ylthio)-1-benzyl-1H-benzo[d]imidazole], the “Inhibition (%)” value at hCB2 receptor [1] amounted to 69%.

For `CCn1c(OC/C=C(\C)CCC=C(C)C)nc2ccccc21` [Compound 12, (E)-2-((3,7-dimethylocta-2,6-dien-1-yl)oxy)-1-ethyl-1H-benzo[d]imidazole], the “Inhibition (%)” value on hCB2 receptor [1] is recorded as −3%.

Regarding `COc1ccc(CSc2nc3ccccc3n2Cc2cccc3ccccc23)cc1` [Compound 18, 2-((4-methoxybenzyl)thio)-1-(naphthalen-1-ylmethyl)-1H-benzo[d]imidazole], on hCB2 receptor [1], the “Inhibition (%)” value came to 46%.

`CC1CCC(C(C)C)C(Oc2nc3ccccc3n2Cc2cccc3ccccc23)C1` (stereo not shown) [Compound 4, 2-((2-isopropyl-5-methylcyclohexyl)oxy)-1-(naphthalen-1-ylmethyl)-1H-benzo[d]imidazole]: the inhibition at 10 µM on hCB2 receptor [1] was 37%.

`CCn1c(SC23CC4CC(CC(C4)C2)C3)nc2ccccc21` [Compound 15, 2-(adamantan-1-ylthio)-1-ethyl-1H-benzo[d]imidazole]: on hCB2 receptor [1], the “Inhibition (%)” value was found to be 63%.

Regarding `COc1cccc(Oc2nc3ccccc3n2Cc2ccccc2)c1` [Compound 22, 1-benzyl-2-(3-methoxyphenoxy)-1H-benzo[d]imidazole], the Ki at human recombinant CB1R (setting [4]) came out at 2.04 ± 1.22 µM. At hCB2 receptor [1], the “Inhibition (%)” value amounted to 84% and the inhibition at 10 µM was above 80%. Moreover, on hCB2 receptor [2], the “agonist activity at CB2” value is on record as “agonist activity was confirmed”. Also, the Ki on hCB2 receptor [3] (setting [5]) was 0.6 ± 0.52 µM. The “Ki (CB1)/Ki (CB2)” value on hCB2 receptor [3] amounted to 3.4.
